The text below walks through data of PMC11323006, “Designing Coiled Coils for Heterochiral Complexation to Enhance Binding and Enzymatic Stability” (Biomacromolecules, 2024).

By share remaining is commonly meant what is left of the initial amount, in per cent. The low end stands for more turnover, the high end for less turnover.

The conditions of data set [1]: cited from earlier work. From the text:
For example, 1:1 heterochir ...

Data set [2] deals with Proteinase K. Briefly: in vitro. The note with it: isolated enzyme proteinase k. How it is done: (§1) Degradation was monitored by HPLC. Solutions of individual coiled coils were prepared at 200 μM in 1× PBS and pH corrected to 7.40 ± 0.05 using 1–15 μL of 1 M NaOH. A stock solution of Proteinase K enzyme was prepared at 0.5 mg/mL. For each pair of peptides, 1.5 mL of each 200 μM solution was mixed, then 30 μL of 0.5 mg/mL Proteinase K was added to the 3 mL total mixed solution to obtain a final concentration of 5 μg/mL Proteinase K. Each degradation solution was stirred at 250 rpm for the duration of the experiment. For each time point, a 1 mL aliquot of degradation solution was added to an HPLC vial, a 100 μL injection was performed on HPLC, and the remaining 900 μL was returned to the bulk degradation solution. To normalize for slight shifts in elution time due to changing solvent or environmental conditions, a MATLAB script (included in SI) was used to align all K4^7 (for heptad degradation) or K3^11 (for hendecad degradation) peaks to the same elution time as the elution at t = 0 h.
(§2) Solutions of K4^7 and E4^7 (200 μM in 1× PBS at pH 7.4) were blended as homochiral (L-K4^7/L-E4^7) or heterochiral (D-K4^7/L-E4^7) mixtures. These blends were then incubated with 5 μg/mL Proteinase K, an enzyme known for its broad-spectrum activity and expected to cleave after the I, A, L, and E residues of these peptides.[40] Immediately after adding Proteinase K, as well as after 1, 3, 6, 12, and 24 h incubations, we used high performance liquid chromatography (HPLC) to monitor the degradation of the coiled coils.
(§3) We incubated solutions of homochiral (L-K3^11/L-E3^11) or heterochiral (D-K3^11/L-E3^11) hendecad coiled coils with 5 μg/mL Proteinase K as we did for the heptad coiled coils (200 μM each in 1× PBS at pH 7.4).

The target in data set [3] is Proteinase K (Parengyodontium album, UniProt P06873). Briefly: in vitro. The conditions noted are these: Proteinase K 5 μg/mL. How it is done: as §1, §2, §3
Setting [4] is: pH 7.4, percent intact by peak area (Normalized Area).

Square brackets hold non-standard residues; d marks the D form. Peptide text beside a SMILES is read from it.

Chain of Proteinase K (Parengyodontium album, UniProt P06873) (P06873 106-384): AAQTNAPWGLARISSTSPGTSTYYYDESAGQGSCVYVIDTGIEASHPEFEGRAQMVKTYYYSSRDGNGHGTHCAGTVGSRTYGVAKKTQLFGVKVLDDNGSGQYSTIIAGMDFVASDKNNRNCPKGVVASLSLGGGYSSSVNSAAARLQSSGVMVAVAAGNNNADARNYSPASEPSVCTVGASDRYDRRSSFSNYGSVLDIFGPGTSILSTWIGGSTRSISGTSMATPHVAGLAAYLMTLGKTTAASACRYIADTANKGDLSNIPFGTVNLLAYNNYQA

Regarding (PPG)10, the “solubility of heterochiral mixtures” value in data set [1] (heterochiral mixtures of triple helices) was “precipitate”. Moreover, the “solubility of homochiral triple helices” value in data set [1] (homochiral triple helices) was “soluble”.
For the compound `CC[C@H](C)[C@H](NC(=O)[C@H](CCCCN)NC(=O)[C@H](CCC(=O)O)NC(=O)[C@H](CCCCN)NC(=O)[C@H](CC(C)C)NC(=O)[C@H](C)NC(=O)[C@H](C)NC(=O)[C@@H](NC(=O)[C@H](CCCCN)NC(=O)[C@H](CCC(=O)O)NC(=O)[C@H](CCCCN)NC(=O)[C@H](CC(C)C)NC(=O)[C@H](C)NC(=O)[C@H](C)NC(=O)[C@@H](NC(=O)[C@H](CCCCN)NC(=O)[C@H](CCC(=O)O)NC(=O)[C@H](CCCCN)NC(=O)[C@H](CC(C)C)NC(=O)[C@H](C)NC(=O)[C@H](C)NC(=O)[C@@H](NC(=O)[C@@H](N)CCCCN)[C@@H](C)CC)[C@@H](C)CC)[C@@H](C)CC)C(=O)N[C@@H](C)C(=O)N[C@@H](C)C(=O)N[C@@H](CC(C)C)C(=O)N[C@@H](CCCCN)C(=O)N[C@@H](CCC(=O)O)C(N)=O` [L-K4^7] (H-KIAALKEKIAALKEKIAALKEKIAALKE-NH2), in the data set with Proteinase K [2] (setting [4]), the share remaining at 3 h, 100 μM amounted to 74% and the amount remaining at 24 h, 100 μM is 0%.
In the data set on Proteinase K [2] (setting [4]), `CC[C@H](C)[C@H](NC(=O)[C@H](CCC(=O)O)NC(=O)[C@H](C)NC(=O)[C@H](C)NC(=O)[C@@H](NC(=O)[C@H](CCC(=O)O)NC(=O)[C@H](CCCCN)NC(=O)[C@H](CCC(=O)O)NC(=O)[C@H](CC(C)C)NC(=O)[C@H](C)NC(=O)[C@H](C)NC(=O)[C@@H](NC(=O)[C@H](CCC(=O)O)NC(=O)[C@H](C)NC(=O)[C@H](C)NC(=O)[C@@H](NC(=O)[C@H](CCC(=O)O)NC(=O)[C@H](CCCCN)NC(=O)[C@H](CCC(=O)O)NC(=O)[C@H](CC(C)C)NC(=O)[C@H](C)NC(=O)[C@H](C)NC(=O)[C@@H](NC(=O)[C@@H](N)CCC(=O)O)[C@@H](C)CC)[C@@H](C)CC)[C@@H](C)CC)[C@@H](C)CC)C(=O)N[C@@H](C)C(=O)N[C@@H](C)C(=O)N[C@@H](CC(C)C)C(=O)N[C@@H](CCC(=O)O)C(=O)N[C@@H](CCCCN)C(=O)N[C@@H](CCC(=O)O)C(=O)N[C@H](C(=O)N[C@@H](C)C(=O)N[C@@H](C)C(N)=O)[C@@H](C)CC` [L-E3^11] (H-EIAALEKEIAAEIAALEKEIAAEIAALEKEIAA-NH2) returned a fraction remaining at 3 h, 100 μM of 7%; a fraction remaining at 6 h, 100 μM of 0%; a share remaining at 12 h, 100 μM of 0%. Besides, the fraction remaining at 168 h, 100 μM with Proteinase K [2] (pH 7.4, percent of the peptide remaining) came out at 23%.
For `CC[C@@H](C)[C@@H](NC(=O)[C@H](N)CCCCN)C(=O)N[C@H](C)C(=O)N[C@H](C)C(=O)N[C@H](CC(C)C)C(=O)N[C@H](CCCCN)C(=O)N[C@H](CCC(=O)O)C(=O)N[C@H](CCCCN)C(=O)N[C@@H](C(=O)N[C@H](C)C(=O)N[C@H](C)C(=O)N[C@H](CCCCN)C(=O)N[C@@H](C(=O)N[C@H](C)C(=O)N[C@H](C)C(=O)N[C@H](CC(C)C)C(=O)N[C@H](CCCCN)C(=O)N[C@H](CCC(=O)O)C(=O)N[C@H](CCCCN)C(=O)N[C@@H](C(=O)N[C@H](C)C(=O)N[C@H](C)C(=O)N[C@H](CCCCN)C(=O)N[C@@H](C(=O)N[C@H](C)C(=O)N[C@H](C)C(=O)N[C@H](CC(C)C)C(=O)N[C@H](CCCCN)C(=O)N[C@H](CCC(=O)O)C(=O)N[C@H](CCCCN)C(=O)N[C@@H](C(=O)N[C@H](C)C(=O)N[C@H](C)C(N)=O)[C@H](C)CC)[C@H](C)CC)[C@H](C)CC)[C@H](C)CC)[C@H](C)CC` [D-K3^11] (H-[dK][dI][dA][dA][dL][dK][dE][dK][dI][dA][dA][dK][dI][dA][dA][dL][dK][dE][dK][dI][dA][dA][dK][dI][dA][dA][dL][dK][dE][dK][dI][dA][dA]-NH2), the “stability in the heterochiral complex (in words)” value at Proteinase K [3] (heterochiral blend D-K3^11:L-E3^11, 1× PBS pH 7.4, HPLC, 30 h incubation) was “remains largely stable”.
Consider `CC[C@H](C)[C@H](NC(=O)[C@H](CCCCN)NC(=O)[C@H](C)NC(=O)[C@H](C)NC(=O)[C@@H](NC(=O)[C@H](CCCCN)NC(=O)[C@H](CCC(=O)O)NC(=O)[C@H](CCCCN)NC(=O)[C@H](CC(C)C)NC(=O)[C@H](C)NC(=O)[C@H](C)NC(=O)[C@@H](NC(=O)[C@H](CCCCN)NC(=O)[C@H](C)NC(=O)[C@H](C)NC(=O)[C@@H](NC(=O)[C@H](CCCCN)NC(=O)[C@H](CCC(=O)O)NC(=O)[C@H](CCCCN)NC(=O)[C@H](CC(C)C)NC(=O)[C@H](C)NC(=O)[C@H](C)NC(=O)[C@@H](NC(=O)[C@@H](N)CCCCN)[C@@H](C)CC)[C@@H](C)CC)[C@@H](C)CC)[C@@H](C)CC)C(=O)N[C@@H](C)C(=O)N[C@@H](C)C(=O)N[C@@H](CC(C)C)C(=O)N[C@@H](CCCCN)C(=O)N[C@@H](CCC(=O)O)C(=O)N[C@@H](CCCCN)C(=O)N[C@H](C(=O)N[C@@H](C)C(=O)N[C@@H](C)C(N)=O)[C@@H](C)CC` [L-K3^11] (H-KIAALKEKIAAKIAALKEKIAAKIAALKEKIAA-NH2), for which the “time to complete degradation” value on Proteinase K [3] (homochiral blend L-K3^11:L-E3^11, 1× PBS pH 7.4, HPLC) is on record as “under 6 h”. For the same compound, in the data set on Proteinase K [2] (pH 7.4), the amount remaining at 1 h, 100 μM was found to be 77%; the share remaining at 3 h, 100 μM turned out to be 11%; the amount remaining at 6 h, 100 μM is 0%; the fraction remaining at 12 h, 100 μM worked out at 0%. Besides, the fraction remaining at 30 h, 100 μM in the data set with Proteinase K [2] (pH 7.4) was found to be 0%.
For the compound `CC[C@H](C)[C@H](NC(=O)[C@H](CCC(=O)O)NC(=O)[C@H](CCCCN)NC(=O)[C@H](CCC(=O)O)NC(=O)[C@H](CC(C)C)NC(=O)[C@H](C)NC(=O)[C@H](C)NC(=O)[C@@H](NC(=O)[C@H](CCC(=O)O)NC(=O)[C@H](CCCCN)NC(=O)[C@H](CCC(=O)O)NC(=O)[C@H](CC(C)C)NC(=O)[C@H](C)NC(=O)[C@H](C)NC(=O)[C@@H](NC(=O)[C@H](CCC(=O)O)NC(=O)[C@H](CCCCN)NC(=O)[C@H](CCC(=O)O)NC(=O)[C@H](CC(C)C)NC(=O)[C@H](C)NC(=O)[C@H](C)NC(=O)[C@@H](NC(=O)[C@@H](N)CCC(=O)O)[C@@H](C)CC)[C@@H](C)CC)[C@@H](C)CC)C(=O)N[C@@H](C)C(=O)N[C@@H](C)C(=O)N[C@@H](CC(C)C)C(=O)N[C@@H](CCC(=O)O)C(=O)N[C@@H](CCCCN)C(N)=O` [L-E4^7] (H-EIAALEKEIAALEKEIAALEKEIAALEK-NH2), the “time within which the intact peak disappears completely” value on Proteinase K [3] (heterochiral blend D-K4^7:L-E4^7, 1× PBS pH 7.4, HPLC peak at 6.9 min) is not above 12 h. In the data set with Proteinase K [2] (pH 7.4), this compound returned a fraction remaining at 3 h, 100 μM of 71%; an amount remaining at 6 h, 100 μM of 12%; a share remaining at 12 h, 100 μM of 1%; a fraction remaining at 24 h, 100 μM of 0%.
With `CC[C@@H](C)[C@@H](NC(=O)[C@H](N)CCCCN)C(=O)N[C@H](C)C(=O)N[C@H](C)C(=O)N[C@H](CC(C)C)C(=O)N[C@H](CCCCN)C(=O)N[C@H](CCC(=O)O)C(=O)N[C@H](CCCCN)C(=O)N[C@@H](C(=O)N[C@H](C)C(=O)N[C@H](C)C(=O)N[C@H](CC(C)C)C(=O)N[C@H](CCCCN)C(=O)N[C@H](CCC(=O)O)C(=O)N[C@H](CCCCN)C(=O)N[C@@H](C(=O)N[C@H](C)C(=O)N[C@H](C)C(=O)N[C@H](CC(C)C)C(=O)N[C@H](CCCCN)C(=O)N[C@H](CCC(=O)O)C(=O)N[C@H](CCCCN)C(=O)N[C@@H](C(=O)N[C@H](C)C(=O)N[C@H](C)C(=O)N[C@H](CC(C)C)C(=O)N[C@H](CCCCN)C(=O)N[C@H](CCC(=O)O)C(N)=O)[C@H](C)CC)[C@H](C)CC)[C@H](C)CC` [D-K4^7] (H-[dK][dI][dA][dA][dL][dK][dE][dK][dI][dA][dA][dL][dK][dE][dK][dI][dA][dA][dL][dK][dE][dK][dI][dA][dA][dL][dK][dE]-NH2), the “degradation in the heterochiral blend (in words)” value on Proteinase K [3] (heterochiral blend D-K4^7:L-E4^7, 1× PBS pH 7.4, HPLC, up to 24 h) is reported as “little to no degradation”. In the data set on Proteinase K [2] (setting [4]), this compound gave a fraction remaining at 1 h, 100 μM of 97% and a fraction remaining at 3 h, 100 μM of 97%.
